Legend:
MCF-7 cell line cells [1] = assay: Whole cell MALDI TOF MS imaging of live cell microarray reacted with apoptosis-inducing compounds; format: cell-based, human; conditions: MCF-7 cells, 24 hours; etoposide 1 mM, camptothecin 10 μM, andrographolide 100 μM, 500 μM and 1 mM; FIG. 39E
Method: The live cell microarray was fabricated as follows: a sterile 12-well silicone gasket was affixed to a top surface of a sterile APEX™ glass microwell plate, as schematically depicted in FIG. 15A and 1×DMEM cell culture medium supplemented with 10% FBS and 1% of Penicillin/Streptomycin was dispensed into each well of the fabricated 12-chamber cell culture device. Several hundred of MCF-7 cell line cells were seeded into each of the 12 wells and the cells were grown to […] density on the microwell plate within 48 hrs using a standard cell culture protocol. The fabricated live cell microarray thus comprised 12 reactive sites defined by the dimensions of the silicone gasket, each reactive site measuring approximately 7.5 mm×7.5 mm and containing approximately 5×10^5 live cells.
The live cell microarray fabricated as described in the previous Example was utilized to measure response of the MCF-7 cell line cells to several apoptosis-inducing compounds, which included etoposide, camptothecin and andrographolide. In addition, the live cell microarray was utilized to measure response of the MCF-7 cells to the same compound (andrographolide) provided in three different concentrations.
Stock solutions of the three compounds listed above were prepared in DMSO and stored at 4° C. or at −20° C. The compounds were diluted with the DMEM cell culture medium to the final concentrations of 1 mM (etoposide), 10 μM (camptothecin) and 100 μM, 500 μM and 1 mM (andrographolide) immediately before use. The original cell growth medium within the individual wells of the silicone gasket was removed by pipetting and replaced with approximately 250 μL of a cell growth medium supplemented with a specific compound. FIG. 39A schematically depicts a layout of the cell microarray. […]
The reacted cell microarray was measured by MALDI TOF MS in the linear mid-mass positive mode as described previously. […]

MCF-7 cell line cells [2] = assay: Optical imaging of cell density and morphology on composite microbead-microwell live cell microarray; format: cell-based, human; conditions: MCF-7 cells, 24 hours, optical microscope, FIG. 41A/41B
Text: In this Example, the release of etoposide from the beads into the cell culture medium occurred primarily via diffusion mechanism, although other methods, such as photorelease of active compounds from individual beads may be also utilized due to the fact that the solid support used for the microarray fabrication is sufficiently transparent in the UV-visible range.
Optical imaging: the multi-well gasket was separated from the microwell array plate, the surface of the plate rinsed with 1×PBS buffer and the microwell plate was imaged using an optical microscope to determine the cell density and cell morphology. A representative image acquired from an area of the microwell plate, which contained the cells exposed to the drug-free DMEM medium, is shown in FIG. 41A. A representative image acquired from an area of the microwell plate, which contained the cells exposed to the etoposide-containing DMEM medium, is shown in FIG. 41B.

MCF-7 cells = assay: Difference whole cell mass spectrometry for detection of spectral changes due to apoptosis; format: cell-based, human; conditions: 24 hrs incubation, FIG. 35
Method: The human breast cancer cell line MCF-7 cells were grown in Gibco® DMEM medium on a 6-well clear polystyrene cell culture plate (BD Falcon). The cells were grown according to the manufacturer's protocol to approximately 75% confluency. At this point several apoptosis-inducing compounds were added to the individual wells and the cells were further incubated for 24 hrs. Both live adherent cells and dead cells detached from the surface were collected from the individual wells of the cell culture plate and the cell viability count was performed on Countless® automated cell counter (Life Technologies) per manufacturer's protocol.
The cells for WCMS analysis were prepared as described in the previous examples. The cell concentration was approximately 1,000 cells per μL.
Whole cell MALDI TOF MS spectra were acquired from the control (untreated) and treated cell populations using instrument parameters described in the previous examples. […] The bottom spectrum represents a difference mass spectrum produced by subtracting the control spectrum from the Etoposide-treated spectrum.

[3] = Cell counting (Trypan blue, automated cell counter) on composite microbead-microwell live cell microarray; conditions: human, MCF-7 cells on a microbead-microwell array plate
MCF-7 cell line cells [4] = assay: as above; conditions: MCF-7 cells, 24 hours, cell growth medium supplemented with etoposide released from the ion exchange beads; Trypan blue

In the case of `C=C1CC[C@@H]2[C@](C)(CO)[C@H](O)CC[C@@]2(C)[C@@H]1C/C=C1/C(=O)OC[C@H]1O` [andrographolide], the “intensity of peaks in the 7,891-7,977 m/z spectral region compared to untreated cells” value (“intensity of peaks … compared to untreated cells” for short) (MCF-7 cell line cells [1]) was “significantly greater intensity”.

For `CC[C@@]1(O)C(=O)OCc2c1cc1n(c2=O)Cc2cc3ccccc3nc2-1` [camptothecin], the “intensity of peaks … compared to untreated cells” value (MCF-7 cell line cells [1]) was “significantly greater intensity”.

For `COc1cc([C@@H]2c3cc4c(cc3[C@@H](O[C@@H]3O[C@@H]5CO[C@@H](C)O[C@H]5[C@H](O)[C@H]3O)[C@H]3COC(=O)[C@H]23)OCO4)cc(OC)c1O` [etoposide], the “density of adherent cells, drug-free vs etoposide-containing DMEM medium” value (MCF-7 cell line cells [2]) was “significantly greater density of adherent cells was observed for the cells grown in the drug-free medium”, the “intensity of peaks … compared to untreated cells” value (MCF-7 cell line cells [1]) was “significantly greater intensity” and the “difference mass spectrum, treated minus control” value (MCF-7 cells) was “reveals multiple spectral features”. For the same molecule, the viability at 24 h [3] was 44%, the live cells (MCF-7 cell line cells [4]) was 2.1×10^5 and the total cells (MCF-7 cell line cells [4]) was 4.7×10^5.

Reference: US11131674B2, “Microarray compositions and methods of their use” (ADEPTRIX CORP., priority 2013, dated 2021)
